Source: paper PMC7778589, “Photosensitizer-based multimodal PSMA-targeting ligands for intraoperative detection of prostate cancer” (Theranostics, 2021)

How the values were obtained:
[1] = biological target: T1, LS174T-PSMA-positive cells (Homo sapiens, UniProt Q04609); experiment: Scatchard analysis (Kd); assay type: binding; details: on ice 4 h
T1 construct: expressed in transfected cells; host or cells: LS174T colon carcinoma cells (human), stably transfected with pcDNA3.1-hPSMA
Protocol: (§1) Binding and internalization characteristics of all ligands were compared using LS174T-PSMA and wildtype LS174T cells. Cells were cultured to confluency in 6-wells plates followed by incubation at 37 °C for 2 h in 1 ml binding buffer (RPMI/0.5% BSA) with 50,000 counts per minute (cpm) of ^111In-labeled ligand (0.1-0.25 pmol/well). Nonspecific binding was determined by coincubation with 2-(phosphonomethyl)pentane-1,5-dioic acid (2-PMPA, 21.57 µM). PSMA-specific binding was defined as nonspecific binding subtracted from total binding. To retrieve the membrane-bound fraction, cells were washed with PBS twice and incubated with acid buffer (0.1 M acetic acid, 154 mM NaCl, pH 2.6) for 10 minutes at 0 °C. […] Membrane-bound activity and intercellular activity fractions were measured in a gamma-counter (2480 WIZARD^2 Automatic Gamma Counter, PerkinElmer), [25]. […] Stability was evaluated by RP-HPLC analysis after 2 h of incubation at 37 °C. […]
(§2) Scatchard analysis was performed to determine the dissociation constant (Kd) of the N064 ligand. […] Non-specific binding was determined by coincubation with 1 µM PSMA-617. […] Cell lysis was collected from the plate and the cell-associated activity was measured in a γ-counter. […] To determine PSMA antigen density per cell and the Kd of multimodal ligands, data were analyzed by linear regression using GraphPad Prism software. […]

[2] = biological target: T2, PSMA-expressing LS174T-PSMA cells (Homo sapiens, UniProt Q04609); experiment: Competitive binding assay (IC50); details: on ice 2 h
T2 construct: expressed in transfected cells; host or cells: LS174T colon carcinoma cells (human), stably transfected with pcDNA3.1-hPSMA
Protocol: as §1, §2

[3] = test system: LS174T-PSMA and LS174T xenografts; experiment: Biodistribution of 111In-labeled multimodal ligands; assay type: in vivo, BALB/c nude mice; details: 0.3 nmol, 2 h p.i.
Protocol: Animal experiments were performed in 8-10 weeks old male BALB/c nude mice (Janvier). Animals were housed in individually ventilated cages (Blue line IVC, 4-5 mice per cage) under nonsterile standard conditions with cage enrichment present and free access to chlorophyll-free animal chow (Sniff GmbH) and water. Mice were subcutaneously inoculated with 3.0 x 10^6 LS174T-PSMA cells in the left flank and 1.5 × 10^6 LS174T cells in the right flank, diluted in 200 μL of complete RPMI 1640 medium. Eleven days after tumor cell inoculation when xenografts were approximately 0.1 cm^3, tracers were injected intravenously via the tail vein. The researchers were not blinded for the experimental groups and tumor-bearing mice were block-randomized into groups based on tumor size. All experiments were approved by the institutional Animal Welfare Committee of the Radboud university medical center and were conducted in accordance to the guidelines of the Revised Dutch Act on Animal Experimentation.
Mice were injected intravenously with 10 MBq ^111In-labeled PSMA ligands (0.3 nmol, molar activity 33.3 MBq/nmol) in PBS/0.5% BSA. Two hours post injection, mice were euthanized by CO2/O2-asphyxation and images were acquired with the IVIS fluorescence imaging system (Xenogen VivoVision IVIS Lumina II, Caliper Life Sciences), using an acquisition time of 10 s. Subsequently, µSPECT/CT images were acquired (U-SPECT II, MILabs) with a 1.0 mm diameter pinhole mouse collimator tube [26]. Mice were scanned for 30 min followed by a CT scan (spatial resolution 160 μm, 65 kV, 615 μA) for anatomical reference. µSPECT/CT scans were reconstructed with MILabs reconstruction software, using an ordered-subset expectation maximization algorithm, energy windows 154 - 188 keV and 220-270 keV, 3 iterations, 16 subsets, voxel size of 0.4 mm. SPECT/CT scans were analyzed and maximum intensity projections (MIPs) were created using the Inveon Research Workplace software version 4.1 (Siemens Preclinical Solutions). NIRF images were analyzed using Living Image software version 4.2 (Caliper Life Sciences). Tissues of interest were dissected, weighed and measured for radioactivity in a gamma-counter as described above. In the fluorescence-guided surgery feasibility study, pre-operative imaging was performed to visualize tumor tissue. After white light resection, NIRF imaging was repeated to assess if any remaining tumor was present.

[4] = biological target: T3, PSMA-expressing LS174T cells (LS174T-PSMA) (Homo sapiens, UniProt Q04609); experiment: Binding and internalization assay with 111In-labeled ligands; assay type: cell-based; details: 2 h 37 °C
T3 construct: expressed in transfected cells; host or cells: LS174T colon carcinoma cells (human), stably transfected with pcDNA3.1-hPSMA
Protocol: Cell lines were purchased from the American Type Culture Collection. LS174T colon carcinoma cells were stably transfected with human PSMA using the plasmid pcDNA3.1-hPSMA and cultured in RPMI 1640 medium supplemented with 2 mM glutamine, 10% FCS, and 0.3 mg/ml G418 at 37 °C in a humidified atmosphere with 5% CO2 [5].
Binding and internalization characteristics of all ligands were compared using LS174T-PSMA and wildtype LS174T cells. Cells were cultured to confluency in 6-wells plates followed by incubation at 37 °C for 2 h in 1 ml binding buffer (RPMI/0.5% BSA) with 50,000 counts per minute (cpm) of ^111In-labeled ligand (0.1-0.25 pmol/well). Nonspecific binding was determined by coincubation with 2-(phosphonomethyl)pentane-1,5-dioic acid (2-PMPA, 21.57 µM). PSMA-specific binding was defined as nonspecific binding subtracted from total binding. To retrieve the membrane-bound fraction, cells were washed with PBS twice and incubated with acid buffer (0.1 M acetic acid, 154 mM NaCl, pH 2.6) for 10 minutes at 0 °C. After incubation, the membrane bound fraction (in acid buffer) was collected, cells were washed, lysed with 0.1 M NaOH and cell lysis (intercellular activity) was collected. Membrane-bound activity and intercellular activity fractions were measured in a gamma-counter (2480 WIZARD^2 Automatic Gamma Counter, PerkinElmer), [25]. Human serum was used to determine the in vitro serum stability of the multimodal ligands (0.8 µg/ml serum, 5 MBq/μg labeling). After incubation for 2 h at 37°C, serum proteins were precipitated by adding a 1:1 (v/v) volume of acetonitrile followed by 5 min of centrifugation at 3220×g. Stability was evaluated by RP-HPLC analysis after 2 h of incubation at 37 °C. […] Experimental details are described in the supplementary materials and methods.

[5] = Lipophilicity, PBS/n-octanol; assay type: physicochemical; details: radiolabeled ligand
Protocol: Tubes were vortexed vigorously for 1 min and centrifuged for 5 min at 201×g for phase separation. The concentration of radioactivity in a defined volume of each layer was measured in a well-type gamma-counter.

In vitro serum stability = assay type: in vitro ADME, human; details: 2 h, 37°C, RP-HPLC
Protocol: Binding and internalization characteristics of all ligands were compared using LS174T-PSMA and wildtype LS174T cells. Cells were cultured to confluency in 6-wells plates followed by incubation at 37 °C for 2 h in 1 ml binding buffer (RPMI/0.5% BSA) with 50,000 counts per minute (cpm) of ^111In-labeled ligand (0.1-0.25 pmol/well). Nonspecific binding was determined by coincubation with 2-(phosphonomethyl)pentane-1,5-dioic acid (2-PMPA, 21.57 µM). PSMA-specific binding was defined as nonspecific binding subtracted from total binding. To retrieve the membrane-bound fraction, cells were washed with PBS twice and incubated with acid buffer (0.1 M acetic acid, 154 mM NaCl, pH 2.6) for 10 minutes at 0 °C. After incubation, the membrane bound fraction (in acid buffer) was collected, cells were washed, lysed with 0.1 M NaOH and cell lysis (intercellular activity) was collected. Membrane-bound activity and intercellular activity fractions were measured in a gamma-counter (2480 WIZARD^2 Automatic Gamma Counter, PerkinElmer), [25]. Human serum was used to determine the in vitro serum stability of the multimodal ligands (0.8 µg/ml serum, 5 MBq/μg labeling). After incubation for 2 h at 37°C, serum proteins were precipitated by adding a 1:1 (v/v) volume of acetonitrile followed by 5 min of centrifugation at 3220×g. Stability was evaluated by RP-HPLC analysis after 2 h of incubation at 37 °C. […]

T3 sequence (Q04609 whole entry): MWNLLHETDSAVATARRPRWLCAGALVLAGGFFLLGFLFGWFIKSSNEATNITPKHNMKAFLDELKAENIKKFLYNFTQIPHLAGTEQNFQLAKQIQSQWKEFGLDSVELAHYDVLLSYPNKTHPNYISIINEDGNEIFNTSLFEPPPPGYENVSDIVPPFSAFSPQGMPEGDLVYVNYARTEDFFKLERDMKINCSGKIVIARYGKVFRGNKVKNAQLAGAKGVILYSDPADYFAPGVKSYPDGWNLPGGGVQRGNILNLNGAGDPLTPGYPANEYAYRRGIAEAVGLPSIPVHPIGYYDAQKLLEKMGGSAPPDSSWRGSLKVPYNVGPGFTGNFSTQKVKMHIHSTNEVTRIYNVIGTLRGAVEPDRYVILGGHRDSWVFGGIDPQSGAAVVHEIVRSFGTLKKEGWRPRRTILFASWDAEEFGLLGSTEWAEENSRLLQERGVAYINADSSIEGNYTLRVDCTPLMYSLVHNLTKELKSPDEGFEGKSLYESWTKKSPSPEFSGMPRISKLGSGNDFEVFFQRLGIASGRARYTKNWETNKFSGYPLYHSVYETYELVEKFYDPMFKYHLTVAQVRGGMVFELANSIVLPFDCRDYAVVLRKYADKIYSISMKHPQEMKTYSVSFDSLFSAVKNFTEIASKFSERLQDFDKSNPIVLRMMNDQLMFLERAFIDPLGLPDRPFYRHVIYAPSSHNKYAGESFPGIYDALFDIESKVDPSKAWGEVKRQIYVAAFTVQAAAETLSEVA
T2 sequence (Q04609 whole entry): as above
T1 sequence (Q04609 whole entry): as above

Adrenals [3]	Blood [3]	Bone [3]	Bone marrow [3]	Duodenum [3]	Heart [3]	Kidney [3]	Liver [3]	Lung [3]	Muscle [3]	Pancreas [3]	Prostate [3]	Salivary glands [3]	Spleen [3]	Stomach [3]	Tumor+ LS174T-PSMA [3]	Tumor- LS174T [3]	Tumor/Blood ratio [3]	Tumor/Kidney ratio [3]	Tumor/Liver ratio [3]	SMILES	also measured
																				O=C(O)CC[C@H](NC(=O)N[C@@H](CCCCNC(=O)[C@H](Cc1ccc2ccccc2c1)NC(=O)[C@H]1CC[C@H](CNC(=O)CN2CCN(CC(=O)O)CCN(CC(=O)O)CCN(CC(=O)O)CC2)CC1)C(=O)O)C(=O)O [PSMA-617]	Kd [1]: 15 ± 1.1 nM; IC50 [2]: 52.7 nM
1.3 %ID/g	0.2 %ID/g	0.5 %ID/g	0.3 %ID/g	0.3 %ID/g	0.3 %ID/g	70.3 %ID/g	0.6 %ID/g	0.4 %ID/g	0.2 %ID/g	0.2 %ID/g	0.5 %ID/g	0.4 %ID/g	1.1 %ID/g	0.3 %ID/g	11.7 %ID/g	0.5 %ID/g	71.9	0.2	21.3	C[Si](C)(CCC[N+](CCCS(=O)(=O)O)(CCCS(=O)(=O)O)CCCS(=O)(=O)O)O[Si-2]123(O[Si](C)(C)CCC[N+](CCCS(=O)(=O)O)(CCCS(=O)(=O)O)CCCS(=O)(=O)O)n4c5c6ccccc6c4N=C4c6cccc(OCCCOC(=O)NCCCCCC(=O)NCCCC[C@H](NC(=O)CCC(C(=O)O)N7CCN(CC(=O)O)CCN(CC(=O)O)CCN(CC(=O)O)CC7)C(=O)N[C@@H](CCC(=O)O)C(=O)N[C@@H](CCC(=O)O)C(=O)NCCCCCC(=O)NCCCC[C@H](NC(=O)N[C@@H](CCC(=O)O)C(=O)O)C(=O)O)c6C(=[N+]41)N=c1c4ccccc4c(n12)=NC1=[N+]3C(=N5)c2ccccc21.[Na+].[Na+].[Na+].[Na+] (stereo partly drawn) [N144]	Tumor/Muscle ratio [3]: 110; Tumor/Negative tumor ratio [3]: 28.8; Tumor/Prostate ratio [3]: 32; Tumor/Salivary gland ratio [3]: 30.3; Tumor/Spleen ratio [3]: 12.3; Internalized fraction [4]: 2.5 ± 0.05; Membrane bound fraction [4]: 0.3 ± 0.03; LogD [5]: -2.4 ± 0.01
1.5 %ID/g	0.3 %ID/g	0.2 %ID/g	0.4 %ID/g	0.3 %ID/g	0.3 %ID/g	59.9 %ID/g	0.6 %ID/g	0.5 %ID/g	0.2 %ID/g	0.2 %ID/g	0.5 %ID/g	0.4 %ID/g	0.9 %ID/g	0.3 %ID/g	11.5 %ID/g	0.4 %ID/g	49.1	0.2	21.3	C[Si](C)(CCC[N+](CCCS(=O)(=O)O)(CCCS(=O)(=O)O)CCCS(=O)(=O)O)O[Si-2]123(O[Si](C)(C)CCC[N+](CCCS(=O)(=O)O)(CCCS(=O)(=O)O)CCCS(=O)(=O)O)n4c5c6ccccc6c4N=C4c6cccc(OCCCOC(=O)NCCCCCC(=O)NCCCC[C@H](NC(=O)CCOCCOCCOCCOCCNC(=O)CCC(C(=O)O)N7CCN(CC(=O)O)CCN(CC(=O)O)CCN(CC(=O)O)CC7)C(=O)N[C@H](Cc7ccccc7)C(=O)N[C@@H](CCC(=O)O)C(=O)N[C@@H](CCC(=O)O)C(=O)NCCCCCC(=O)NCCCC[C@H](NC(=O)N[C@@H](CCC(=O)O)C(=O)O)C(=O)O)c6C(=[N+]41)N=c1c4ccccc4c(n12)=NC1=[N+]3C(=N5)c2ccccc21.[Na+].[Na+].[Na+].[Na+] (stereo partly drawn) [NJ26]	Tumor/Muscle ratio [3]: 116.4; Tumor/Negative tumor ratio [3]: 31.7; Tumor/Prostate ratio [3]: 29.4; Tumor/Salivary gland ratio [3]: 35; Tumor/Spleen ratio [3]: 14.2; Internalized fraction [4]: 1.8 ± 0.03; Membrane bound fraction [4]: 0.5 ± 0.05; LogD [5]: -2.4 ± 0.13
0.9 %ID/g	0.2 %ID/g	0.3 %ID/g	0.3 %ID/g	0.2 %ID/g	0.3 %ID/g	59 %ID/g	0.5 %ID/g	0.4 %ID/g	0.1 %ID/g	0.2 %ID/g	0.5 %ID/g	0.4 %ID/g	1.3 %ID/g	0.3 %ID/g	6.5 %ID/g	0.4 %ID/g	41.1	0.2	13.7	C[Si](C)(CCC[N+](CCCS(=O)(=O)O)(CCCS(=O)(=O)O)CCCS(=O)(=O)O)O[Si-2]123(O[Si](C)(C)CCC[N+](CCCS(=O)(=O)O)(CCCS(=O)(=O)O)CCCS(=O)(=O)O)n4c5c6ccccc6c4N=C4c6cccc(OCCCOC(=O)NCCCCCC(=O)NCCCC[C@H](NC(=O)CCC(C(=O)O)N7CCN(CC(=O)O)CCN(CC(=O)O)CCN(CC(=O)O)CC7)C(=O)NCCOCCOCCOCCOCCC(=O)N[C@H](Cc7ccccc7)C(=O)N[C@@H](CCC(=O)O)C(=O)N[C@@H](CCC(=O)O)C(=O)NCCCCCC(=O)NCCCC[C@H](NC(=O)N[C@@H](CCC(=O)O)C(=O)O)C(=O)O)c6C(=[N+]41)N=c1c4ccccc4c(n12)=NC1=[N+]3C(=N5)c2ccccc21.[Na+].[Na+].[Na+].[Na+] (stereo partly drawn) [N111]	Tumor/Muscle ratio [3]: 71.9; Tumor/Negative tumor ratio [3]: 24.1; Tumor/Prostate ratio [3]: 17.2; Tumor/Salivary gland ratio [3]: 21.5; Tumor/Spleen ratio [3]: 5.7; Internalized fraction [4]: 0.9 ± 0.06; Membrane bound fraction [4]: 0.4 ± 0.05; Stability in human serum (In vitro serum stability): stable; LogD [5]: -2.4 ± 0.15
